From US8633197B2, “Piperidine/piperazine derivatives” (Janssen Pharmaceutica N.V., priority 2007, dated 2014)

Assays:
human DGAT1 = target: T1, human DGAT1 (Homo sapiens, UniProt O75907); assay: DGAT1 FlashPlate assay: inhibition of DGAT1 activity in membrane preparations; assay type: biochemical; settings: IC50 values expressed in M
T1 construct: FLAG (N); made in house; host or cells: SF9 insect cells (pFastBac baculovirus); total cell membranes used
T1 sequence (O75907 1-488): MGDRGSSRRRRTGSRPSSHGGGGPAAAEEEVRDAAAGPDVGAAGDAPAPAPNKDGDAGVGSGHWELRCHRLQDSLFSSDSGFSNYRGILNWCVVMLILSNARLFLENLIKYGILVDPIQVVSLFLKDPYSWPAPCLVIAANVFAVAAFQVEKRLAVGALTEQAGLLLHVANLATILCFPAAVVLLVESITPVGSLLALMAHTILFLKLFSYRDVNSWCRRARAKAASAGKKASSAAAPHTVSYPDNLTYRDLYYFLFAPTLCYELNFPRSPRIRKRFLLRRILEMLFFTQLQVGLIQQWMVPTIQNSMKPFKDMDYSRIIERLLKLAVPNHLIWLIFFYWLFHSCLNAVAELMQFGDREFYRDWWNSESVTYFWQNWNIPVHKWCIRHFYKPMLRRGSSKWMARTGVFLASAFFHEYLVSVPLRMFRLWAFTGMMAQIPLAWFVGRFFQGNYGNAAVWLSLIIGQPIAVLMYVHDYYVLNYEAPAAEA
From the text: The inhibiting activity of the present compounds on DGAT1 activity was screened in a single well procedure assay using DGAT1 comprising membrane preparations and DGAT1 substrate comprising micelles and determining formed radio-active triacylglycerol coming in close proximity of a flashplate surface by radio luminescence.
Said assay is described in full detail in WO2006/067071, the content of which is incorporated herein by reference.
By DGAT1 activity is meant the transfer of coenzyme A activated fatty acids to the 3-position of 1,2-diacylglycerols, thus forming a triglyceride molecule, by enzyme DGAT1.
human DGAT1 (NM012079.2) was cloned into the pFastBac vector, containing translation start, a FLAG-tag at the N-terminus as described in literature and a viral Kozak sequence (AAX) preceding the ATG to improve expression in insect cells. Expression was done as described in literature (Cases, S., Smith, S. J., Zheng, Y., Myers H. M., Lear, S. R., Sande, E., Novak, S., Collins, C., Welch, C. B., Lusis, A. J., Erickson, S. K. and Farese, R. V. (1998) Proc. Natl. Acad. Sci. USA 95, 13018-13023.) using SF9 cells.
72 h transfected SF9 cells were collected by centrifugation (13000 rpm-15 min-4° C.) and lysed in 2×500 ml lysisbuffer (0.1M Sucrose, 50 mM KCl, 40 mM KH2PO4, 30 mM EDTA pH 7.2. Cells were homogenized by cell disruptor. After centrifugation 1380 rpm-15 min-4° C. (SN discarded), pellet was resuspended in 500 ml lysisbuffer and total cell membranes collected by ultracentrifugation at 34000 rpm (100 000 g) for 60 min (4° C.). The collected membranes were resuspended in lysis buffer, divided in aliquots and stored with 10% glycerol at −80° C. until use.
Add 1 ml dioleoyl-sn-glycerol (10 mg/ml) to 10 ml of L-α-phosphatidylcholine (1 mg/ml) and 10 ml of L-α-phosphatidyl-L-serine (1 mg/ml) in a thick glass recipient. Evaporate under nitrogen and put on ice for 15 minutes. Reconstitute in 10 ml Tris/HCl (10 mM, pH 7.4) by sonication on ice. The sonification process consists of sonification cycles of 10 seconds in the sonification bath followed by 10 seconds cool down on ice and repeating this sonification cycle till a homogeneous solution is obtained (takes about 15 minutes). The thus obtained micelles are stored at −20° C. till later use and contain DAG at a final concentration of 1.61 mM.
• a) Assaybuffer • 50 mM Tris-HCl (pH 7.4), 150 mM MgCl2, 1 mM EDTA, 0.2% BSA. • b) N-ethylmaleimide, 5M • Dissolve 5 g into a final volume of 8 ml DMSO 100% and store at −20° C. in aliquots till later use. • c) Substrate mix (for 1 384 well plate=3840 μl) • 612 μl micelles stock (51 μM final) • 16.6 μl oleoylCoA 9.7 mM • 23 μl [^3H]-oleoylCoA (49 Ci/mmol, 500 μCi/ml) 3188.4 μl Tris pH 7.4, 10 mM • d) Enzyme mix (for 1 384 well plate=3520 μl) (5 μg/ml) • Add 11.73 μl of DGAT membrane stock (1500 μg/ml stock) to 3508 μl assay buffer. • e) Stop mix (for 1 384 well plate=7.68 ml) (250 mM) • Add 384 μl of N-ethylmaleimide (5M) to 3.456 ml DMSO 100%, and further dilute 3.84 ml of said solution with 3.84 ml DMSO 10%. Method
DGAT activity in membrane preparations was assayed in 50 mM Tris-HCl (pH 7.4), 150 mM MgCl2, 1 mM EDTA and 0.2% BSA, containing 50 μM DAG, […] PC/PS and 8.4 μM [^3H]-oleoylCoA (at a specific activity of 30 nCi/well) in a final volume of 50 μl in 384-well format using the red shifted Basic Image FlashPlate™ (Perkin Elmer Cat. No. SMP400).
In detail, 10 μl enzyme mix and 10 μl substrate mix were added to 30 μl of assay buffer, optionally in the presence of 1 μl DMSO (blank and controls) or 1 μl of the compound to be tested. This reaction mixture was incubated for 120 minutes at 37° C. and the enzymatic reaction stopped by adding 20 μl of the stop mix. The plates were sealed and the vesicles allowed to settle overnight at room temperature. Plates were centrifuged for 5 minutes at 1500 rpm and measured in Leadseeker. […]

For `N#C/N=C(/Nc1ccc(C(=O)O)cc1Cl)N1CCN(c2ccc(NC(=O)CCCc3ccccc3)cc2)CC1` [Compound 13], the melting point was 208.7 °C and the “pIC50 (mean)” value (human DGAT1) was 7.58.
In the case of `N#C/N=C(\Oc1ccccc1)N1CCN(c2ccc(NC(=O)CCCc3ccccc3)cc2)CC1` [Compound 2], the IC50 (human DGAT1) is reported as 1820 nM.
For `Cc1ccccc1-c1cccc(C(=O)Nc2ccc(N3CCN(/C(=N\C#N)Nc4c(Cl)cc(CN5CCCC5)cc4Cl)CC3)cc2)c1` [Compound 6], the melting point was 217.1 °C and the IC50 (human DGAT1) was 2.4 nM.
In the case of `COCCN1CCN(C(=O)c2cc(Cl)c(N/C(=N/C#N)N3CCN(c4ccc(NC(=O)c5ccccc5N5CCN(C)CC5)cc4)CC3)c(Cl)c2)CC1` [Compound 19], the melting point is reported as 254.2 °C and the “pIC50 (mean)” value (human DGAT1) is reported as 5.54.
In the case of `Cc1cc(C)n(-c2cccc(C(=O)Nc3ccc(N4CCN(/C(=N\C#N)Nc5c(Cl)cc(CN6CCCC6)cc5Cl)CC4)cc3)c2)n1` [Compound 12], the “pIC50 (mean)” value (human DGAT1) is reported as 7.84.
In the case of `Cc1cccc(Cl)c1N/C(=N/C#N)N1CCN(c2ccc(NC(=O)c3ccc(N4CCN(C)CC4)cc3)cc2)CC1` [Compound 17], the melting point is reported as 285.1 °C and the “pIC50 (mean)” value (human DGAT1) is reported as 6.64.
For `N#C/N=C(/Nc1ccccc1Cl)N1CCN(c2ccc(NC(=O)CCCc3ccccc3)cc2)CC1` [Compound 3], the IC50 (human DGAT1) was 33.9 nM.
For `CC(=O)OCC(=O)Nc1ccc(N2CCN(/C(=N\C#N)Nc3c(F)cccc3Cl)CC2)cc1` [Compound 16], the melting point was 209 °C and the “pIC50 (mean)” value (human DGAT1) was 6.79.
For `CN1CCN(C(=O)c2cc(Cl)c(N/C(=N/C#N)N3CCN(c4ccc(NC(=O)c5cccc(N6CCCC6)c5)cc4)CC3)c(Cl)c2)CC1` [Compound 7], the IC50 (human DGAT1) was 5.25 nM.
With `COc1ccc(CC(=O)Nc2ccc(N3CCN(/C(=N\C#N)Nc4c(C)cccc4Cl)CC3)cc2)cc1` [Compound 8] the melting point was 206.9 °C and the “pIC50 (mean)” value (human DGAT1) was 8.23.
Compound `N#C/N=C(/Nc1c(Cl)cccc1Cl)N1CCN(c2ccc(NC(=O)CCCc3ccccc3)cc2)CC1` [Compound 1] has an IC50 (human DGAT1) of 9.12 nM.
In the case of `COC(=O)c1ccc(N/C(=N/C#N)N2CCN(c3ccc(NC(=O)c4cccc(N5CCCC5)c4)cc3)CC2)c(Cl)c1` [Compound 9], the melting point is reported as 220.3 °C and the IC50 (human DGAT1) is reported as 6.31 nM.
In the case of `COCCN1CCN(C(=O)c2cc(Cl)c(N/C(=N/C#N)N3CCN(c4ccc(NC(=O)Cc5ccc(OC)cc5)cc4)CC3)c(Cl)c2)CC1` [Compound 10], the melting point is reported as 205.3 °C and the “pIC50 (mean)” value (human DGAT1) is reported as 8.17.
With `COCCN1CCN(C(=O)c2cc(Cl)c(N/C(=N/C#N)N3CCN(c4ccc(NC(=O)CNc5ccccc5)cc4)CC3)c(Cl)c2)CC1` [Compound 15] the melting point was 211.9 °C and the “pIC50 (mean)” value (human DGAT1) was 7.20.
In the case of `CCCCCCC(=O)Nc1ccc(N2CCN(/C(=N\C#N)Nc3ccc(C(=O)OC)cc3Cl)CC2)cc1` [Compound 14], the melting point is reported as 191.8 °C and the “pIC50 (mean)” value (human DGAT1) is reported as 7.24.
With `COc1ccc(CC(=O)Nc2ccc(N3CCN(/C(=N\C#N)Nc4c(Cl)cc(CN5CCCC5)cc4Cl)CC3)cc2)cc1` [Compound 11] the melting point was 222.4 °C and the “pIC50 (mean)” value (human DGAT1) was 8.16.
In the case of `Cc1ccccc1N/C(=N/C#N)N1CCN(c2ccc(NC(=O)CCCc3ccccc3)cc2)CC1` [Compound 4], the IC50 (human DGAT1) is reported as 36.3 nM.
For `CN1CCN(c2ccc(C(=O)Nc3ccc(N4CCN(/C(=N\C#N)Nc5ccccc5Cl)CC4)cc3)cc2)CC1` [Compound 18], the melting point was 244.2 °C and the “pIC50 (mean)” value (human DGAT1) was 6.10.
Compound `N#C/N=C(/Nc1ccccc1)N1CCN(c2ccc(NC(=O)CCCc3ccccc3)cc2)CC1` [Compound 5] has an IC50 (human DGAT1) of 1350 nM.
